# Tests used:
# H460 cells [1] = test: Sensitivity of transfected H460 cells to taxotere, cisplatin or camptothecin (colony count, Example 2); assay type: cell-based, human; conditions: for apoptotic effect induced by the GAP (170-702) construction on addition of the product: added to culture medium of human tumour cells transfected with GAP(170-702), at concentrations without effect on cell viability; for apoptotic effect induced by the transfer of the Grb3-3 gene on addition of the product: added to culture medium of human tumour cells transfected with Grb3-3, at concentrations without effect on cell viability; for effect of the product alone on cell viability: concentrations used in the combination, human tumour cells
# Text: H460 cells transfected as described in Example 1 are subjected during selection by geneticin to a treatment for several days at different concentrations of taxotere, of cisplatin or of camptothecin. The H460/Neo^R cells and which are resistant to the chemotherapeutic agents are quantified as described in Example 1. The sensitivity to taxotere (A), to cisplatin (B) or to camptothecin (C) of the H460 cells transfected with pSV2-Neo (●), pSV2-Neo+pSV2-GAP[170-702] (▴) or pSV2-Neo+pSV2-Grb3-3 (▾) is depicted relative to cells transfected identically but in the absence of treatment with the chemotherapeutic agents. The results of an experiment which is representative of quantification of the number of colony after the different treatments mentioned are summarized in FIG. 2.
# H460 cells [2] = test: Sensitivity of isolated H460 clones transfected with pcDNA3 or pcDNA3-p53WT to taxotere (Example 3); assay type: cell-based, human
# Text: H460 cells are transfected with cDNA coding for the wild-type p53 protein (p53^WT) placed in the plasmid pcDNA3 under the control of the CMV promoter. Plasmid pcDNA3 also contains the Neo gene placed under the control of the SV40 promoter. Cells transfected with pcDNA3 or pcDNA3-p53^WT are selected and isolated as described in Example 1. In the cells transfected with pcDNA3-p53^WT and which are resistant to geneticin, the presence of p53 is verified by western blotting using specific antibodies. FIG. 3 summarizes the results of a representative experiment in which are depicted, on the one hand the number of colonies obtained after pcDNA3 or pcDNA3-p53^WT transfection (A), and on the other hand the sensitivity of the clones isolated to a treatment with taxotere (B).
# [3] = test system: various tumour cell lines; conditions: various tumour cell lines in culture; cited from earlier work
Compound,apoptotic effect induced by the GAP (170-702) construction on addition of the product (H460 cells [1]),apoptotic effect induced by the transfer of the Grb3-3 gene on addition of the product (H460 cells [1]),effect of the product alone on cell viability (H460 cells [1]),"effect of taxotere on H460 clones expressing wild-type p53 (H460 cells [2]; H460 clones resistant to the effect of p53, increasing doses of taxotere)",effect of taxotere on cells that do not express wild-type p53 (H460 cells [2]; same concentrations as those killing p53-expressing clones),induction of apoptosis [3]
CC[C@@]1(O)C(=O)OCc2c1cc1n(c2=O)Cc2cc3ccccc3nc2-1 [camptothecin],very greatly increased,very greatly increased,without effect on cell viability,–,–,–
N.N.[Cl][Pt][Cl] [cisplatin],very greatly increased,very greatly increased,without effect on cell viability,–,–,–
"CC(=O)O[C@@]12CO[C@@H]1C[C@H](O)[C@@]1(C)C(=O)[C@H](O)C3=C(C)[C@@H](OC(=O)[C@H](O)[C@@H](NC(=O)OC(C)(C)C)c4ccccc4)C[C@@](O)([C@@H](OC(=O)c4ccccc4)[C@H]21)C3(C)C [taxotere, 4-acetoxy-2α-benzoyloxy-5β,20-epoxy-1β,7β,10β-trihydroxy-9-oxo-11-taxen-13α-yl (2R,3S)-3′-t-butoxycarbonylamino-3′-phenyl-2′-hydroxypropionate]",very greatly increased,very greatly increased,without effect on cell viability,cells die,completely ineffective,–
"CC(=O)O[C@H]1C(=O)[C@@]2(C)[C@H]([C@H](OC(=O)c3ccccc3)[C@]3(O)C[C@H](OC(=O)[C@H](O)[C@@H](NC(=O)c4ccccc4)c4ccccc4)C(C)=C1C3(C)C)[C@]1(OC(C)=O)CO[C@@H]1C[C@@H]2O [Taxol, 4,10β-diacetoxy-2α-benzoyloxy-5β,20-epoxy-1β,7β-dihydroxy-9-oxo-11-taxen-13α-yl (2R,3S)-3′-benzoylamino-3′-phenyl-2′-hydroxypropionate]",–,–,–,–,–,induces apoptosis
